The results in this text go back to ChEMBL document CHEMBL4325930, “Hybrid Inhibitors of Malarial Dihydrofolate Reductase with Dual Binding Modes That Can Forestall Resistance” (ACS Med Chem Lett, 2018).

In brackets after ≈: the same amount, converted by molar mass.

Series [1] concerns Plasmodium falciparum. As to the kind of experiment: microbe, parasite or virus in culture. To be noted: TM4/8.2.
The subject of series [2] is Plasmodium falciparum. Put plainly: Antiplasmodial activity against Plasmodium falciparum CSL-2 harboring DHFR NRNL haplotype C59R/S108N/I164L triple mutant. Format: functional, organism-based.
Series [3] has as its system Plasmodium falciparum. As to the kind of experiment: microbe, parasite or virus in culture. Particulars: W2.
The test system of series [4] is Plasmodium falciparum. As to the kind of experiment: Antiplasmodial activity against Plasmodium falciparum V1/S harboring DHFR IRNL haplotype N51I/C59R/S108N/I164L quadruple mutant. Format: functional, organism-based.
In the next series the test system is Vero. As to the kind of experiment: Cytotoxicity against African green monkey Vero cells. Format: cell-based. Particulars: chlorocebus sabaeus.
Series [5] concerns Plasmodium falciparum. As to the kind of experiment: microbe, parasite or virus in culture. To be noted: K1CB1.
A further series concerns the target T1, Dihydrofolate reductase (Homo sapiens, UniProt P00374).
T1 sequence (P00374 whole entry): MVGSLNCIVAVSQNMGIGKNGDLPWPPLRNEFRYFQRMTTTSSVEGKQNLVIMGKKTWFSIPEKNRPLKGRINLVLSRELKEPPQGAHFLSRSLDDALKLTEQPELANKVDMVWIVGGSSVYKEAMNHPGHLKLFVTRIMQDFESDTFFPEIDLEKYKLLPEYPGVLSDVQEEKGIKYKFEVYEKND

Series [6] can be described thus: Solubility of the compound. Format: physicochemical.
Series [7] is described as follows: Inhibition of Plasmodium falciparum TM4/8.2 wild type DHFR NCSI haplotype.

For `CCc1nc(N)nc(N)c1-c1cccc(Cl)c1`, the IC50 is 420 nM in the series on Plasmodium falciparum [1]; 2530 nM in the series with Plasmodium falciparum [2]; 3940 nM in the series on Plasmodium falciparum [3]; 9100 nM in the series on Plasmodium falciparum [4]; 1310 nM in the series with Plasmodium falciparum [5]. Besides, the Activity with Vero amounted to 7 µM. Further, affinity on Dihydrofolate reductase was put at a Ki of 1.6 nM.
With `Cc1nc(N)nc(N)c1OCCCOc1cc(Cl)c(Cl)cc1Cl`, the values for the IC50 in the series with Plasmodium falciparum [1] and in the series with Plasmodium falciparum [4] were 230 nM and 3500 nM, respectively.
`CCc1nc(N)nc(N)c1OCCCOc1ccc(-c2c(N)nc(N)nc2CC)cc1` had a solubility in [6] of 1 µM (≈ 0.425 µg/mL).
Regarding `CCc1nc(N)nc(N)c1-c1ccc(Cl)cc1` [PYRIMETHAMINE], the half-maximal inhibitory concentration (IC50) with Plasmodium falciparum [2] was 42000 nM; in the series on Plasmodium falciparum [4], more than 100000 nM. Besides, the affinity in series [7] corresponds to a Ki of 0.6 nM.

By IC50 is commonly meant the concentration that inhibits the measured activity by half. In general, Ki refers to the dissociation constant of the complex between target and ligand, obtained from inhibition or displacement. What is called solubility is the dissolved amount per volume that the medium holds.
